Experimental findings from PubChem BioAssay AID330 (DTP/NCI, 2004) are described below.

The test has as its system P388 leukemia ip, CD2F1 mice, survival T/C. Kind of test: NCI In Vivo Anticancer Drug Screen. Data for tumor model P388 Leukemia (intraperitoneal) in CD2F1 (CDF1) mice. The note with it: endpoint: median survival time, higher = longer survival. In short, it runs like this: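 Mice carrying the transplanted tumor received test compound or vehicle. Survival was recorded in each group, and the value is the treated-group measurement divided by that of the vehicle-treated control group.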

The mark [1] stands for this setting: dose: 100.0 mg/kg/injection, schedule: Q01DX009 (ip), vehicle: saline.
Setting [2] is: dose: 200.0 mg/kg/injection, schedule: Q01DX009 (ip), vehicle: saline.
[3] abbreviates: dose: 50.0 mg/kg/injection, schedule: Q01DX005 (ip), vehicle: Klucel (hydroxypropylcellulose) (HPC).
Setting [4] is: dose: 100.0 mg/kg/injection, schedule: Q01DX005 (ip), vehicle: Klucel (hydroxypropylcellulose) (HPC).
Where [5] appears, read: dose: 200.0 mg/kg/injection, schedule: Q01DX005 (ip), vehicle: Klucel (hydroxypropylcellulose) (HPC).
Setting [6] is: dose: 50.0 mg/kg/injection, schedule: Q01DX009 (ip), vehicle: saline.
The mark [7] stands for this setting: dose: 100.0 mg/kg/injection, schedule: Q04DX003 (ip), vehicle: Klucel (hydroxypropylcellulose) (HPC).
[8] abbreviates: dose: 200.0 mg/kg/injection, schedule: Q04DX003 (ip), vehicle: Klucel (hydroxypropylcellulose) (HPC).
Where [9] appears, read: dose: 100.0 mg/kg/injection, schedule: Q04DX003 (ip), vehicle: saline with Tween-80.
Where [10] appears, read: dose: 50.0 mg/kg/injection, schedule: Q01DX009 (ip), vehicle: saline with Tween-80.
Setting [11] is: dose: 100.0 mg/kg/injection, schedule: Q01DX009 (ip), vehicle: saline with Tween-80.
[12] abbreviates: dose: 60.0 mg/kg/injection, schedule: Q01DX005 (ip), vehicle: saline with Tween-80.
The mark [13] stands for this setting: dose: 120.0 mg/kg/injection, schedule: Q01DX005 (ip), vehicle: saline with Tween-80.
Where [14] appears, read: dose: 240.0 mg/kg/injection, schedule: Q01DX005 (ip), vehicle: saline with Tween-80.

“And” between values parts separate entries of the source, which are not always exact repeats. Identical values can stand only once. Inconclusive results and toxic doses are left out.

As to `CC1CCC(=O)N1C` (stereo unspecified), the T/C under setting [1] was 105 % of control; the T/C under setting [2] was 100 % of control; the T/C (dose: 400.0 mg/kg/injection, schedule: Q01DX009 (ip), vehicle: saline) was 113 % of control.
Consider `CCOC(=O)C(C#N)C(c1ccc2c(c1)OCO2)N(CCO)CCO` (stereo unspecified), for which the T/C was 93 % of control under setting [3], 99 % of control under setting [4] and 99 % of control under setting [5].
`COc1ccc(-c2nccc3cc(OC)c(OC)cc23)cc1O`: the T/C (dose: 25.0 mg/kg/injection, schedule: Q01DX009 (ip), vehicle: other) was 100 % of control; the T/C (dose: 50.0 mg/kg/injection, schedule: Q01DX009 (ip), vehicle: other) was 86 % of control; the T/C (dose: 100.0 mg/kg/injection, schedule: Q01DX009 (ip), vehicle: other) is 86 % of control.
Take `Cc1ccc(C)n1-c1ccsc1C(=O)NNC(=O)C(Cl)Cl`: the T/C (dose: 7.5 mg/kg/injection, schedule: Q01DX005 (ip), vehicle: Klucel (hydroxypropylcellulose) (HPC)) was 100 % of control; the T/C (dose: 15.0 mg/kg/injection, schedule: Q01DX005 (ip), vehicle: Klucel (hydroxypropylcellulose) (HPC)) is 106 % of control; the T/C (dose: 30.0 mg/kg/injection, schedule: Q01DX005 (ip), vehicle: Klucel (hydroxypropylcellulose) (HPC)) was 99 % of control.
For `O=Nc1ccc(Cl)cc1C(=O)c1ccccc1`, the T/C by setting is: under setting [6], 90 % of control; under setting [1], 104 % of control; under setting [2], 97 % of control.
For the molecule `CC(=O)/C=C1\C(=O)OCC1(C)C`, the T/C runs as follows: (dose: 100.0 mg/kg/injection, schedule: Q04DX003 (ip), vehicle: saline) 105 % of control; (dose: 200.0 mg/kg/injection, schedule: Q04DX003 (ip), vehicle: saline) 108 % of control; (dose: 400.0 mg/kg/injection, schedule: Q04DX003 (ip), vehicle: saline) 111 % of control.
For the molecule `O=C(O)CC(CC(=O)N(CCP(c1ccccc1)c1ccccc1)CCP(c1ccccc1)c1ccccc1)C(=O)O` (stereo unspecified) (tested in a mixture with another compound), the T/C under setting [6] was 111 % of control; the T/C under setting [1] was 111 % of control; the T/C under setting [7] is 99 % of control; the T/C under setting [2] is 112 % of control; the T/C under setting [8] is 101 % of control; the T/C (dose: 400.0 mg/kg/injection, schedule: Q04DX003 (ip), vehicle: Klucel (hydroxypropylcellulose) (HPC)) is 97 % of control.
In the case of `FC(F)(F)CO[Te](OCC(F)(F)F)(OCC(F)(F)F)OCC(F)(F)F`, the T/C (dose: 12.5 mg/kg/injection, schedule: Q01DX001 (ip), vehicle: saline with Tween-80) was 106 % of control.
`Cc1ccc(Cl)cc1N=Cc1ccccc1O`: the T/C under setting [9] is 100 % of control; the T/C (dose: 200.0 mg/kg/injection, schedule: Q04DX003 (ip), vehicle: saline with Tween-80) was 95 % of control; the T/C (dose: 400.0 mg/kg/injection, schedule: Q04DX003 (ip), vehicle: saline with Tween-80) was 100 % of control.
For `c1ccc(-c2nc3ccccc3[nH]2)nc1`, the T/C is, setting by setting: (dose: 25.0 mg/kg/injection, schedule: Q04DX003 (ip), vehicle: Klucel (hydroxypropylcellulose) (HPC)) 101 % of control; (dose: 50.0 mg/kg/injection, schedule: Q04DX003 (ip), vehicle: Klucel (hydroxypropylcellulose) (HPC)) 96 % of control; (dose: 100.0 mg/kg/injection, schedule: Q01DX009 (ip), vehicle: Klucel (hydroxypropylcellulose) (HPC)) 115 % of control; under setting [7], 101 % of control; (dose: 200.0 mg/kg/injection, schedule: Q01DX009 (ip), vehicle: Klucel (hydroxypropylcellulose) (HPC)) 99 % of control; under setting [8], 93 % of control. Besides, the T/C (dose: 400.0 mg/kg/injection, schedule: Q01DX009 (ip), vehicle: Klucel (hydroxypropylcellulose) (HPC)) is 101 % of control.
With `CC(C)N=c1sc(-c2ccccc2)c(C#N)c(=O)n1C(C)C`, the T/C runs as follows: (dose: 25.0 mg/kg/injection, schedule: Q01DX009 (ip), vehicle: saline with Tween-80) 101 % of control; under setting [10], 103 % of control; under setting [11], 103 % of control.
`COC1=CCC=C(C(C)(C)C)C1`: the T/C reads like this: under setting [12], 98 % of control; under setting [13], 94 % of control; under setting [14], 103 % of control.
With `Brc1cn2[n+](c1)[B-]n1cc(Br)c[n+]1[B-]2`, the T/C by setting is: (dose: 15.0 mg/kg/injection, schedule: Q01DX005 (ip), vehicle: saline with Tween-80) 100 % of control; (dose: 30.0 mg/kg/injection, schedule: Q01DX005 (ip), vehicle: saline with Tween-80) 100 % of control; under setting [12], 100 % of control and 101 % of control.
Turning to `CCCOC(=O)c1ccccc1C(=O)O`, the T/C by setting is: under setting [10], 105 % of control; under setting [11], 104 % of control; (dose: 200.0 mg/kg/injection, schedule: Q01DX009 (ip), vehicle: saline with Tween-80) 101 % of control.
As to `Cc1ccc(C)n1N1CCOCC1`, the T/C under setting [12] was 108 % of control, the T/C under setting [13] is 101 % of control and the T/C under setting [14] was 100 % of control.
Regarding `COC(=O)/C=C(\Cl)C(=O)OC`, the T/C was 101 % of control (dose: 0.62 mg/kg/injection, schedule: Q01DX009 (ip), vehicle: saline with Tween-80); 101 % of control (dose: 1.25 mg/kg/injection, schedule: Q01DX009 (ip), vehicle: saline with Tween-80); 105 % of control (dose: 2.5 mg/kg/injection, schedule: Q01DX009 (ip), vehicle: saline with Tween-80); 102 % of control (dose: 5.0 mg/kg/injection, schedule: Q01DX009 (ip), vehicle: saline with Tween-80); 105 % of control (dose: 10.0 mg/kg/injection, schedule: Q01DX009 (ip), vehicle: saline with Tween-80).
As to `O=C1OC2CC13Cc1ccccc1C3(C(=O)O)CC2I` (stereo unspecified), the T/C was 104 % of control under setting [12], 106 % of control under setting [13] and 100 % of control under setting [14].
Turning to `Cc1cccc(NC(=O)CS)n1`, the T/C (dose: 25.0 mg/kg/injection, schedule: Q01DX009 (ip), vehicle: Klucel (hydroxypropylcellulose) (HPC)) was 98 % of control and the T/C (dose: 50.0 mg/kg/injection, schedule: Q01DX009 (ip), vehicle: Klucel (hydroxypropylcellulose) (HPC)) is 95 % of control.
With `CCCCCCCC/C=C\CCCCCCCCN1CCOCC1`, the T/C under setting [6] was 97 % of control and the T/C under setting [1] is 106 % of control.
Take `C1N2CN3CN1CP(C2)C3`: the T/C runs as follows: under setting [6], 112 % of control; under setting [1], 115 % of control; under setting [2], 106 % of control.
As to `NC1C[S][Sn]2([O]C1=O)[O]C(=O)C(N)C[S]2` (stereo unspecified), the T/C runs as follows: under setting [3], 99 % of control; under setting [4], 100 % of control; under setting [5], 100 % of control.
`O=S(=O)(O)O.[N-]=C(N)/N=C(\[NH-])N.[N-]=C(N)/N=C(\[NH-])N.[N-]=C(N)NC(=[N-])N.[Rh+3]`: the T/C is, setting by setting: (dose: 12.5 mg/kg/injection, schedule: Q01DX009 (ip), vehicle: saline) 100 % of control; (dose: 25.0 mg/kg/injection, schedule: Q01DX009 (ip), vehicle: saline) 103 % of control; under setting [6], 107 % of control.
On to `CCCCOP(=S)(N1CC1)N1CC1`, for which the T/C by setting is: (dose: 6.25 mg/kg/injection, schedule: Q04DX003 (ip), vehicle: saline with Tween-80) 154 % of control; (dose: 12.5 mg/kg/injection, schedule: Q04DX003 (ip), vehicle: saline with Tween-80) 195 % of control; (dose: 25.0 mg/kg/injection, schedule: Q04DX003 (ip), vehicle: saline with Tween-80) 236 % of control; (dose: 44.0 mg/kg/injection, schedule: Q04DX003 (ip), vehicle: saline with Tween-80) 204 % of control; (dose: 50.0 mg/kg/injection, schedule: Q04DX003 (ip), vehicle: saline with Tween-80) 259 % of control; (dose: 66.0 mg/kg/injection, schedule: Q04DX003 (ip), vehicle: saline with Tween-80) 200 % of control. The T/C is 179 % of control under setting [9] and 100 % of control (dose: 150.0 mg/kg/injection, schedule: Q04DX003 (ip), vehicle: saline with Tween-80).
For `CN(C)Cc1[nH]c2ccccc2c1Sc1ccccc1`, the T/C runs as follows: under setting [12], 100 % of control; under setting [13], 119 % of control.
